In patent publication US9772334B2, “Inflammatory bowel disease markers and therapies for colitis-associated intestinal fibrosis” (THE REGENTS OF THE UNIVERSITY OF CALIFORNIA, priority 2012, dated 2017):

What was measured:
[1] = system: DSS mediated colitis; conditions: intracolonic exogenous peptide; Tai et al. 2007; cited from earlier work
[2] = system: Akt and ERK phosphorylation in Raw 264.7 macrophages; assay: LPS induced Akt and ERK phosphorylation in Raw 264.7 macrophages; type: cell-based, mouse; conditions: mCRAMP 10 μM; 30 minutes
From the text: […]. LPS induced TNFα expression is Akt dependent. […] All experiments are representative of 3 independent experiments.

[3] = system: TNFα expression in Raw264.7 macrophages; assay: PAMP induced TNFα expression in Raw264.7 macrophages; type: cell-based, mouse
Method: To identify the anti-inflammatory mechanism of cathelicidin, human PBMCs and mouse macrophages to were exposed to PAMP signals (LPS and E. coli DNA) in the presence of cathelicidin LL-37 or mCRAMP (1-10 μM).

[4] = system: TNBS acute colitis; assay: TNBS treated acute colitis in mice, intracolonic mCRAMP; type: in vivo; conditions: for colonic 16S expression: intracolonic
From the text: FIG. 20A is an illustration of TNBS experimental plan. […] Experiments included n=6 mice per group.
FIGS. 21B and 21C show colonic Camp mRNA expression of mice. […] There was no significant difference in 16S expression among wild-type and Camp−/− mice. n=6 mice per group.

[5] = system: TNBS mediated chronic colitis; assay: TNBS mediated chronic colitis in mice, intracolonic mCRAMP; type: in vivo; conditions: for colonic collagen deposition / TNBS induced colonic TNFα protein expression / colonic colla2 mRNA: intracolonic
Method: FIG. 1A is an illustration of the experimental plan of TNBS mediated chronic colitis. Wild-type and […] mice were injected with TNBS solution (0.5-1 mg per 20 g mice) in 30% ethanol or 30% ethanol only (vehicle control) under transient isoflurane anesthesia. […] All ethanol treated groups had approximately 20% body weight gain. […] Results are representative of n=6 mice per group.
Collagen was stained in blue. Collagen deposited in mucosal and submucosal layer of TNBS treated wild-type mice was reduced by CRAMP treatment. […] Intracolonic treatment of mCRAMP reduced colonic colla2 mRNA and collagen deposition in both WT (p=0.0364) and Camp^−/− (p=0.04) mice. Results are representative of n=6 mice per group.
Fibroblasts accumulated in the mucosal and submucosal locations as collagen deposition. […] Three different locations (3 separate images) per sample were counted. […] Cell migration was not affected by LL-37 (0-10 μM). Results are representative of 3 independent experiments.

[6] = system: TNFα expression in Raw264.7 macrophages; assay: PAMP induced TNFα expression in Raw264.7 macrophages; type: cell-based, mouse; conditions: flagellin 50 ng/ml

mCRAMP
DSS mediated colitis [1]: ameliorates DSS mediated colitis
LPS induced Akt phosphorylation [2]: significantly suppressed
LPS induced ERK phosphorylation [2]: significantly suppressed
LPS induced TNF mRNA expression ([3]; mCRAMP 10 μM, 6 and 16 hours): did not alter
LPS induced TNFα protein expression in conditioned media ([3]; mCRAMP 10 μM, LPS 0.1 μg/ml, 16 hours): significantly reduced
E. coli DNA induced TNFα expression ([3]; mCRAMP 1-10 μM, E. coli DNA 0.5 μg/ml, 16 hours): no inhibitory effect
colonic TNFα levels ([4]; Camp−/− mice): significantly reduced colonic TNFα levels
colonic 16S expression ([4]; Camp−/− mice): significantly reduced colonic 16S expression
histological damage (histological score) ([4]; Camp−/− mice, p=0.0484): significantly reduced histological damage
colonic TNFα levels ([4]; wild-type mice): significantly reduced colonic TNFα levels
colonic 16S expression ([4]; wild-type mice): significantly reduced colonic 16S expression
histological damage (histological score) ([4]; wild-type mice, p=0.0006): significantly reduced histological damage
colonic collagen deposition ([5]; Camp−/− mice): reduced
TNBS induced colonic TNFα protein expression ([5]; Camp−/− mice, p=0.0054): significantly reduced TNBS induced TNFα protein expression
colonic colla2 mRNA ([5]; Camp−/− mice, p=0.04): reduced
histology score (H&E) ([5]; Camp−/− mice, p=0.04): significantly reduced histology score
percent of body weight change (week 0 to week 7) ([5]; TNBS treated Camp−/− mice): significant body weight loss regardless of mCRAMP treatment
collagen deposited in mucosal and submucosal layer (Masson Trichrome staining) ([5]; TNBS treated wild-type mice): reduced
percent of body weight change (week 0 to week 7) ([5]; TNBS treated wild-type mice, p=0.01): restored the body weight gain
colonic vimentin mRNA expression ([5]; WT and Camp−/− mice): did not affect
colonic α-SMA mRNA expression ([5]; WT and Camp−/− mice): did not affect
colonic collagen deposition ([5]; WT mice): reduced
TNBS induced colonic TNFα protein expression ([5]; WT mice, p=0.0127): significantly reduced TNBS induced TNFα protein expression
colonic colla2 mRNA ([5]; WT mice, p=0.0364): reduced
fibroblast accumulation (number of fibroblasts per field, vimentin immunohistochemistry) ([5]; chronic TNBS colitis): not affected
TNBS induced intestinal fibrosis ([5]; mCRAMP 5 mg/kg intracolonically): significantly reduces TNBS induced intestinal fibrosis
histology score (H&E) ([5]; wild-type mice, p=0.03): significantly reduced histology score
flagellin induced TNFα expression [6]: no inhibitory effect
